# Reference: patent publication US11583506B1, “Cannabinoids for use in suppressing cancer stem cells” (VIVACELL BIOTECHNOLOGY ESPAÑA S.L.U., priority 2020, dated 2023)
# Entries after “also recorded” stand apart in the source; their conditions may differ.
# Legend:
# Assay type in all cases: cell-based, human
# HCT 116 cells = assay: tumorospheres (colonospheres) formation assay; conditions: 7 days of treatment, 1, 2.5, 5 and 10 μM, vs vehicle (DMSO)
# Description: Cancer stem cells (CSC) cultured 3-dimentionally in a serum-free medium supplemented with growth factors are able to form floating spheroids known as tumorospheres (Reynolds B A et al. Dev Biol. 1996; 175(1):1-13. doi:10.1006/dbio.1996.0090; Singh S K et al. Cancer Res. 2003; 63(18):5821-8. PMID: 14522905). These cancer cells-derived spheroids have been proven to display CSCs characteristics and recapitulate in vitro the in vivo conditions of cancer growth becoming an ideal model to evaluate anti-CSC drugs (Dieter S M et al. Cell Stem Cell. 2011; 9(4):357-65. doi: 10.1016/j.stem.2011.08.010. PMID: 21982235; Lee C H et al. Oncotarget. 2016; 7(2):1215-26. doi: 10.18632/oncotarget.6261. PMID: 26527320).
# To study the CBD effect on colonospheres proliferation, a tumorospheres formation assay was performed. Briefly, human colorectal carcinoma HCT 116 cells (ATCC No. CCL-247) were trypsinized, quantified and seeded at clonal density (5 cell/μL) in ultra-low attachment surface 96-well plates (Corning-Costar. Coming, N.Y., USA) with serum free Dulbecco's Modified Eagle's Medium (DMEM)/Nutrient Mixture F-12 Ham (Sigma-Aldrich. St. Louis, Mo., USA) supplemented with 1X B-27 (Invitrogen, Carlsbad, Calif., USA), 10 ng/mL basic fibroblast growth factor (bFGF; PeproTech. London, UK), 20 ng/mL epidermal growth factor (EGF; Santa Cruz Biotechnology, Heidelberg, Germany), 1% (v/v) methylcellulose (R&D Systems. Minneapolis, Minn., USA) to prevent cell aggregation and the corresponding dose of vehicle (DMSO) or CBD concentration (1, 2.5, 5 and 10 μM). Every 2-3 days freshly supplements were added and the number and size of colonospheres were analysed by optical microscopy 1 week after seeding.
# Hes5 = Hes5 protein level in HCT 116 cells by western blot; conditions: 10 μM, 6, 16 and 24 hours
# Protocol: In cancer stem cells Notch1 signalling pathway is abnormally activated (Venkatesh V et al. Stem Cell Investig. 2018 Mar. 12; 5:5. doi: 10.21037/sci.2018.02.02. PMID: 29682512). For this reason, to further analyse the anti-proliferative CBD effect on colonospheres formation, Notch1 expression was investigated by western blot analysis. Briefly, after treatments, the colonospheres were washed with PBS1X and whole-cell proteins were extracted in 50 μL of lysis buffer (50 mM Tris-HCl pH 7.5, 150 mM NaCl, 10% glycerol and 1% NP-40) supplemented with 10 mM NaF, 1 mM Na3VO4, 10 μg/mL leupeptine, 1 μg/mL pepstatin and aprotinin, and 1 μL/mL phenylmethylsulfonyl fluoride saturated. Protein concentration of the whole-cell lysates was quantified by absorbance at 595 nm using Bradford reagent compared to a bovine serum albumin standard curve. Then, forty micrograms of protein were boiled at 95° C. in Laemmli buffer and electrophoresed in 10% SDS/PAGE gels. […] After washing membranes, horseradish peroxidase-conjugated secondary antibody was added and the protein bands on the membranes were detected with ECL reagent (BioRad. Hercules, Calif., USA) by chemiluminescence system (GE Healthcare Europe GmbH. Munich, Germany). […]
# Notch1 [1] = assay: Notch1 expression in colonospheres by western blot; conditions: colonospheres after 7 days of treatment, 1 and 5 μM, western blot normalized to Actin
# Protocol: In cancer stem cells Notch1 signalling pathway is abnormally activated (Venkatesh V et al. Stem Cell Investig. 2018 Mar. 12; 5:5. doi: 10.21037/sci.2018.02.02. PMID: 29682512). For this reason, to further analyse the anti-proliferative CBD effect on colonospheres formation, Notch1 expression was investigated by western blot analysis. Briefly, after treatments, the colonospheres were washed with PBS1X and whole-cell proteins were extracted in 50 μL of lysis buffer (50 mM Tris-HCl pH 7.5, 150 mM NaCl, 10% glycerol and 1% NP-40) supplemented with 10 mM NaF, 1 mM Na3VO4, 10 μg/mL leupeptine, 1 μg/mL pepstatin and aprotinin, and 1 μL/mL phenylmethylsulfonyl fluoride saturated. Protein concentration of the whole-cell lysates was quantified by absorbance at 595 nm using Bradford reagent compared to a bovine serum albumin standard curve. Then, forty micrograms of protein were boiled at 95° C. in Laemmli buffer and electrophoresed in 10% SDS/PAGE gels. […] After washing membranes, horseradish peroxidase-conjugated secondary antibody was added and the protein bands on the membranes were detected with ECL reagent (BioRad. Hercules, Calif., USA) by chemiluminescence system (GE Healthcare Europe GmbH. Munich, Germany).
# The densitometry analysis was performed using ImageJ software, and the quantified band intensities were normalized to Actin. […]
# Notch1 [2] = assay: Notch1 levels in HCT 116 cells by western blot; conditions: for Notch1 levels, panel of natural cannabinoids / Notch1 expression levels, concentration dependence: HCT 116 cells; for Notch1 levels, panel of natural cannabinoids: 24 hours, 10 μM; for Notch1 expression levels, concentration dependence: 24 hours, 1, 2.5, 5 and 10 μM
# Protocol: In cancer stem cells Notch1 signalling pathway is abnormally activated (Venkatesh V et al. Stem Cell Investig. 2018 Mar. 12; 5:5. doi: 10.21037/sci.2018.02.02. PMID: 29682512). For this reason, to further analyse the anti-proliferative CBD effect on colonospheres formation, Notch1 expression was investigated by western blot analysis. Briefly, after treatments, the colonospheres were washed with PBS1X and whole-cell proteins were extracted in 50 μL of lysis buffer (50 mM Tris-HCl pH 7.5, 150 mM NaCl, 10% glycerol and 1% NP-40) supplemented with 10 mM NaF, 1 mM Na3VO4, 10 μg/mL leupeptine, 1 μg/mL pepstatin and aprotinin, and 1 μL/mL phenylmethylsulfonyl fluoride saturated. Protein concentration of the whole-cell lysates was quantified by absorbance at 595 nm using Bradford reagent compared to a bovine serum albumin standard curve. Then, forty micrograms of protein were boiled at 95° C. in Laemmli buffer and electrophoresed in 10% SDS/PAGE gels. Separated proteins were transferred to polyvinylidene difluoride (PVDF) membranes (20V for 30 min) and blocked in TBSIX solution containing 0.1% Tween 20 and 5% non-fat dry milk for 1 hour at room temperature. Immunodetection of specific proteins was carried out by incubation with primary antibody against human Notch1 (1:1000 dilution. Ref. #ab52627, Abcam. Cambridge, UK) and β-actin (1:10.000 dilution. Ref. #A5316, Sigma-Aldrich. St. Louis, Mo., USA) overnight at 4° C. After washing membranes, horseradish peroxidase-conjugated secondary antibody was added and the protein bands on the membranes were detected with ECL reagent (BioRad. Hercules, Calif., USA) by chemiluminescence system (GE Healthcare Europe GmbH. Munich, Germany).
# The densitometry analysis was performed using ImageJ software, and the quantified band intensities were normalized to Actin. […] Thus, it can be concluded that the reduction of Notch1 levels is critical to inhibit the colonospheres proliferation.
# (§1) To gain insight into the CBD effect on Notch1 pathway, a deep study using the human colorectal carcinoma HCT 116 cell line (ATCC No. CCL-247) was performed to analyse Notch1 levels. […] Moreover, the Hes5 protein level, a Notch signalling-related protein, was also analysed by western blot following the methodology explained above and using a specific primary antibody (Human anti-Hes5. 1:1000 dilution. Ref. #ab25374, Abcam. Cambridge, UK). […] To further clarify the CBD mechanism of causing a reduced Notch1 expression, HCT 116 cells were incubated with the proteasome inhibitor MG132 and/or with CBD.
# A panel of natural cannabinoids CBDA, CBDV, CBC, CBCA, CBCV, CBG, CBGA, CBGV, CBGVA, CBN, THC and THCA were evaluated in its capacity to reduce Notch1 levels in human colorectal carcinoma HCT 116 cell line. CBD was purchase from Endoca BV (Netherlands). CBDA, CBDV, CBCA, CBG, CBGA, THC and […] were purchased from Phytoplant Research S.L (Cordoba, Spain). CBC, CBCV, CBGV, CBGVA and CBN were provided by the laboratory of the Professor Giovanni Appendino from the University of Piemonte Orientale (Novara, Italy).
# Notch1 [3] = assay: Notch1 degradation with proteasome inhibitor MG132 in HCT 116 cells; conditions: 24 hours, 10 μM CBD and/or 10 μM MG-132
# Protocol: as §1
# Notch1 [4] = assay: Notch1 expression in Hct116 cancer cell line; conditions: Hct116 (Colon)
# Protocol: (§2) The effect of CBGV on Notch1 expression levels was evaluated in a panel of cancer cell lines. Human colorectal carcinoma Hct116 (No. CCL-247), human colorectal adenocarcinoma HT-29 (No. HTB-38), human brain neuroblastoma SK—N—SH (No. HTB-11), human breast adenocarcinoma MDA-MB-231 (No. HTB-26), human prostate adenocarcinoma PC3 (No. CRL-1435), human prostate carcinoma DU-145 (No. HTB-81), human lung carcinoma A549 (No. CCL-185) and human lung carcinoma H1299 (No. CRL-5803) cell lines were obtained from the American Type Culture Collection (ATCC, USA).
# Notch1 [5] = assay: Notch1 expression in H1299 cancer cell line; conditions: H1299 (Lung)
# Protocol: as §2
# Notch1 [6] = assay: Notch1 expression in SK-N-SH cancer cell line; conditions: SK-N-SH (Brain)
# Protocol: as §2
# Notch1 [7] = assay: Notch1 expression in DU145 cancer cell line; conditions: DU145 (Prostate)
# Protocol: as §2
# Notch1 [8] = assay: Notch1 expression in PC3 cancer cell line; conditions: PC3 (Prostate)
# Protocol: as §2
# Notch1 [9] = assay: Notch1 expression in HT-29 cancer cell line; conditions: HT-29 (Colon)
# Protocol: as §2
# Notch1 [10] = assay: Notch1 expression in A549 cancer cell line; conditions: A549 (Lung)
# Protocol: as §2
# Notch1 [11] = assay: Notch1 expression in MDA-MB-231 cancer cell line; conditions: MDA-MB-231 (Breast)
# Protocol: as §2
structure (smiles),measurement,setting,value
"C=C(C)[C@@H]1CCC(C)=C[C@H]1c1c(O)cc(CCCCC)cc1O [CBD, cannabidiol]",colonospheres formation,HCT 116 cells,significantly reduces the colonospheres formation in a clear dose-dependent manner
same,Hes5 expression levels,Hes5,clearly reduces Hes5 expression levels in HCT 116 cells in a time-dependent manner; also recorded: reduces the expression of Hes5
same,Notch1 levels in colonospheres,Notch1 [1],clearly diminished in a dose-dependent manner; also recorded: reduces Notch1 expression levels in colonospheres
same,Notch1 protein levels in HCT 116 cells (dose and time dependence),"Notch1 [2]; 1, 2.5, 5 and 10 μM for 24 hours, 10 μM at 6, 16 and 24 hours",reduces Notch1 protein levels in HCT 166 cells in a dose- and time-dependent manner; also recorded: reduces Notch1 expression levels in colonospheres and HCT 116 cells
same,"Notch1 levels, panel of natural cannabinoids",Notch1 [2],clearly diminished Notch1 levels; also recorded: reduce Notch1 expression levels
same,Notch1 degradation through the proteasome,Notch1 [3],induces Notch1 degradation by the proteasomal degradation machinery; also recorded: induces Notch1 degradation through the proteasome
"C=C(C)[C@@H]1CCC(C)=C[C@H]1c1c(O)cc(CCC)cc1O [CBDV, cannabidivarin]",colonospheres formation,HCT 116 cells,potent dose-dependent anti-proliferative effect of colonospheres formation; also recorded: inhibit colonospheres formation
same,"Notch1 levels, panel of natural cannabinoids",Notch1 [2],clearly diminished Notch1 levels; also recorded: reduce Notch1 expression levels
same,"Notch1 expression levels, concentration dependence",Notch1 [2],reduce Notch1 expression levels in a concentration-dependent manner
"CCCc1cc(O)c(C/C=C(\C)CCC=C(C)C)c(O)c1 [CBGV, cannabigerovarin]",colonospheres formation,HCT 116 cells,potent dose-dependent anti-proliferative effect of colonospheres formation; also recorded: inhibit colonospheres formation
same,Inhibition of Notch1 expression in cancer cells,Notch1 [4],Yes
same,Inhibition of Notch1 expression in cancer cells,Notch1 [5],Yes
same,Inhibition of Notch1 expression in cancer cells,Notch1 [6],Yes
same,Inhibition of Notch1 expression in cancer cells,Notch1 [7],Yes
same,"Notch1 levels, panel of natural cannabinoids",Notch1 [2],clearly diminished Notch1 levels; also recorded: reduce Notch1 expression levels
same,"Notch1 expression levels, concentration dependence",Notch1 [2],reduce Notch1 expression levels in a concentration-dependent manner
same,Inhibition of Notch1 expression in cancer cells,Notch1 [8],Yes
same,Inhibition of Notch1 expression in cancer cells,Notch1 [9],Yes
same,Inhibition of Notch1 expression in cancer cells,Notch1 [10],Yes
same,Inhibition of Notch1 expression in cancer cells,Notch1 [11],Yes
